Test results taken from ChEMBL document CHEMBL5725962, “Pyrazolo[1,5-A]PYRAZIN-4-YL derivatives” (2018).

Assays:
[1] = target: T1, Tyrosine-protein kinase JAK3 (Homo sapiens, UniProt P52333); assay: (§1) JAK Caliper Enzyme Assay at 1 mM ATP: Compounds were added to a 384-well plate. Reaction mixtures contained 10 mM HEPES, pH 7.4, 10 mM MgCl2, 0.01% BSA, 0.0005% Tween 20, 1 mM ATP and 1 μM peptide substrate. The JAK1 and TYK2 assays contained 1 μM of the IRStide peptide (5FAM-[…]) and the JAK2 and JAK3 assays contained 1 μM of the JAKtide peptide (FITC-[…]). The assays were initiated by the addition of 20 nM JAK1, 1 nM JAK2, 1 nM JAK or 1 nM TYK2 enzyme and were incubated at room temperature for three hours for JAK1, 60 minutes for JAK2, 75 minutes for JAK3 or 135 minutes for TYK2. Enzyme concentrations and incubation times were optimized for each new enzyme preps and were modified slightly over time to ensure 20% to 30% phosphorylation. The assays were stopped with 15 μL of 180 mM HEPES, pH 7.4, 20 mM EDTA, and 0.2% Coating Reagent 3. The assay plates were placed on a Caliper Life Science LC3000 instrument, and each well was sampled using appropriate separation conditions to measure the unphosphorylated and phosphorylated peptide.
T1 sequence (P52333 whole entry): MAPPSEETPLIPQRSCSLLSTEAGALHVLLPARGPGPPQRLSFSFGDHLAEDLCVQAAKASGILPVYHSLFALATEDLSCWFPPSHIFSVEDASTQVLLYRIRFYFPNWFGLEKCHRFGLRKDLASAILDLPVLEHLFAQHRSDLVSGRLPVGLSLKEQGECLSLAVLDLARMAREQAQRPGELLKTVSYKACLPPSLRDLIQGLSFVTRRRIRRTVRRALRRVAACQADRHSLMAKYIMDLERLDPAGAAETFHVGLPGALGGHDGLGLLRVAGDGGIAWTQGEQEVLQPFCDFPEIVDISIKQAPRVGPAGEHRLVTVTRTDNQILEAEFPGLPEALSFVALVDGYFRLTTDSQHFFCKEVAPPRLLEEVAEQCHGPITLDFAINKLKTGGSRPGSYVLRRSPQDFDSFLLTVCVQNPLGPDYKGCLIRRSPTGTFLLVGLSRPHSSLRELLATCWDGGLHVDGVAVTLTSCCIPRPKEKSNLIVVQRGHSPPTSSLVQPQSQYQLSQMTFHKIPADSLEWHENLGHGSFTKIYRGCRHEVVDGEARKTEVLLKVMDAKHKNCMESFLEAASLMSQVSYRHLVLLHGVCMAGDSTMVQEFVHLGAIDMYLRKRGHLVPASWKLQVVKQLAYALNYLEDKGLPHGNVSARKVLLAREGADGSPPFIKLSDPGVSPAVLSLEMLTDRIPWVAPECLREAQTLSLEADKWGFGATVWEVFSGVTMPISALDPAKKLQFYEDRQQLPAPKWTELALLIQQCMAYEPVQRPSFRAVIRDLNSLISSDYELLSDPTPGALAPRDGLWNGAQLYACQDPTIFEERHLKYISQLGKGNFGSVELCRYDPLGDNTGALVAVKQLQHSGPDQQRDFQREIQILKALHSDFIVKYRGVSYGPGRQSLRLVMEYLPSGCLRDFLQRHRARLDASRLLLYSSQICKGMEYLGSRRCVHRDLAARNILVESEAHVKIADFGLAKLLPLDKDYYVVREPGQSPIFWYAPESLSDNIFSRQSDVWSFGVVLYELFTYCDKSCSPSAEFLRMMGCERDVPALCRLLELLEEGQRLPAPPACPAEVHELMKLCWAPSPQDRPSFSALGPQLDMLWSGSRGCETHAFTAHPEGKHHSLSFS

[2] = target: Tyrosine-protein kinase JAK1 (Homo sapiens, UniProt P23458); assay: as §1
[3] = target: Non-receptor tyrosine-protein kinase TYK2 (Homo sapiens, UniProt P29597); assay: as §1
[4] = target: Tyrosine-protein kinase JAK2 (Homo sapiens, UniProt O60674); assay: Reaction mixtures contained 10 mM HEPES, pH 7.4, 10 mM MgCl2, 0.01% BSA, 0.0005% Tween 20, 1 mM ATP and 1 μM peptide substrate. […] Enzyme concentrations and incubation times were optimized for each new enzyme preps and were modified slightly over time to ensure 20% to 30% phosphorylation. The assays were stopped with 15 μL of 180 mM HEPES, pH 7.4, 20 mM EDTA, and 0.2% Coating Reagent 3. The assay plates were placed on a Caliper Life Science LC3000 instrument, and each well was sampled using appropriate separation conditions to measure the unphosphorylated and phosphorylated peptide.
Chain of Tyrosine-protein kinase JAK2 (O60674 whole entry): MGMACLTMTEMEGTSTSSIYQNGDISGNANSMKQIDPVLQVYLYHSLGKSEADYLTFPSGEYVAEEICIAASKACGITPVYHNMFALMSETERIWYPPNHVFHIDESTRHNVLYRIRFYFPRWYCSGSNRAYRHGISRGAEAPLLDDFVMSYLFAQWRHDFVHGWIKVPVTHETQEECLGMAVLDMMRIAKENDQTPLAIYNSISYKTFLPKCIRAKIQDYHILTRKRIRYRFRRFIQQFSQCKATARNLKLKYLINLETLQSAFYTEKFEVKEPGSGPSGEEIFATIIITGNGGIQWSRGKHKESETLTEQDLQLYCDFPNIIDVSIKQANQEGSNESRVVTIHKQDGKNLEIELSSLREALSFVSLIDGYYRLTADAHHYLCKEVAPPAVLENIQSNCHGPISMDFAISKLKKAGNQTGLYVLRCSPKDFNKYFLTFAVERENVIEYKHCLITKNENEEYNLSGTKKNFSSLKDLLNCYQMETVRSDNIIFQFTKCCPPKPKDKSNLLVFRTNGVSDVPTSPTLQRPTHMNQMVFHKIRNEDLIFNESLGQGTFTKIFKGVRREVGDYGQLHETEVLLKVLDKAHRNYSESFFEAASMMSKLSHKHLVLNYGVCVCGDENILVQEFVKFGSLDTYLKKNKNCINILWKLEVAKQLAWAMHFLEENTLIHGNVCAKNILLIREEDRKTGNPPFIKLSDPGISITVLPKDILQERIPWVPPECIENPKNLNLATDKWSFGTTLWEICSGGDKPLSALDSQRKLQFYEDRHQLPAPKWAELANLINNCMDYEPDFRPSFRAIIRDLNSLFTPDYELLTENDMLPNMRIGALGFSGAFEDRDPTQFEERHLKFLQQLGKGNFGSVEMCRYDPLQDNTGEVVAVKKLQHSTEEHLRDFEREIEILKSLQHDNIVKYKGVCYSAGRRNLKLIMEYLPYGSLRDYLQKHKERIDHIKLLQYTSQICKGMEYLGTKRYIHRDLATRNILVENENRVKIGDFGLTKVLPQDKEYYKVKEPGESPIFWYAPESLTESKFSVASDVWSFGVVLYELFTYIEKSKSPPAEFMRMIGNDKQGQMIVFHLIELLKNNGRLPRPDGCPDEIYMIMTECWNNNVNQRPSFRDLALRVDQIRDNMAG

Chain of Tyrosine-protein kinase JAK1 (P23458 whole entry): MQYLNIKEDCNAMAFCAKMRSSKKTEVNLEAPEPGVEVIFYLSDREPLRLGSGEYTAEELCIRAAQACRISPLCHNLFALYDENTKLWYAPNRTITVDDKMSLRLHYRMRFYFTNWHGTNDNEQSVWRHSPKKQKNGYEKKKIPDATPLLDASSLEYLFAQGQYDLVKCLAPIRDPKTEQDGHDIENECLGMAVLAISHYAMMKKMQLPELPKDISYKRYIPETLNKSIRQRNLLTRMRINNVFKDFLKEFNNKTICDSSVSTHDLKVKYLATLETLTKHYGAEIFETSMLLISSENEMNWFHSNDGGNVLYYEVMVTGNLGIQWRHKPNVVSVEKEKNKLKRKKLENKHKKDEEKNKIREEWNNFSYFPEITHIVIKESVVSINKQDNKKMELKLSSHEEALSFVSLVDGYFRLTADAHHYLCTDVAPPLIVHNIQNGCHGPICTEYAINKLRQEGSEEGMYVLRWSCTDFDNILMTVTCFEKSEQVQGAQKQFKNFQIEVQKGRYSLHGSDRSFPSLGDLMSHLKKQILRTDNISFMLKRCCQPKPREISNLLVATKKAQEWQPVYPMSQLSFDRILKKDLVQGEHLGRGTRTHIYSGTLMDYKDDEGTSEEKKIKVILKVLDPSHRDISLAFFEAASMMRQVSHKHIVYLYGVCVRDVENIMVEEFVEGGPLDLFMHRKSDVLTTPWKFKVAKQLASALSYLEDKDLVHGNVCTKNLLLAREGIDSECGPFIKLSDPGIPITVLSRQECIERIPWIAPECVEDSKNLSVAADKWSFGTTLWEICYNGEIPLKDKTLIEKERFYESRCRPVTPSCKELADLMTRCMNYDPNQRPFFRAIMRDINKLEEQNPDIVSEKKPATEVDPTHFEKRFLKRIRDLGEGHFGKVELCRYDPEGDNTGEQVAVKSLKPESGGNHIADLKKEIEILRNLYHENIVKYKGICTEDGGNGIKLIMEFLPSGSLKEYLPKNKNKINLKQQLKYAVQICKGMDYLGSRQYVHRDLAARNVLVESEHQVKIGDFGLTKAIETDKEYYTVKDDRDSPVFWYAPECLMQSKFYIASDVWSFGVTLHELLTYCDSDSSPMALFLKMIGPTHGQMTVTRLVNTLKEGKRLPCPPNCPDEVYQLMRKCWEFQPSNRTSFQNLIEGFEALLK
Chain of Non-receptor tyrosine-protein kinase TYK2 (P29597 whole entry): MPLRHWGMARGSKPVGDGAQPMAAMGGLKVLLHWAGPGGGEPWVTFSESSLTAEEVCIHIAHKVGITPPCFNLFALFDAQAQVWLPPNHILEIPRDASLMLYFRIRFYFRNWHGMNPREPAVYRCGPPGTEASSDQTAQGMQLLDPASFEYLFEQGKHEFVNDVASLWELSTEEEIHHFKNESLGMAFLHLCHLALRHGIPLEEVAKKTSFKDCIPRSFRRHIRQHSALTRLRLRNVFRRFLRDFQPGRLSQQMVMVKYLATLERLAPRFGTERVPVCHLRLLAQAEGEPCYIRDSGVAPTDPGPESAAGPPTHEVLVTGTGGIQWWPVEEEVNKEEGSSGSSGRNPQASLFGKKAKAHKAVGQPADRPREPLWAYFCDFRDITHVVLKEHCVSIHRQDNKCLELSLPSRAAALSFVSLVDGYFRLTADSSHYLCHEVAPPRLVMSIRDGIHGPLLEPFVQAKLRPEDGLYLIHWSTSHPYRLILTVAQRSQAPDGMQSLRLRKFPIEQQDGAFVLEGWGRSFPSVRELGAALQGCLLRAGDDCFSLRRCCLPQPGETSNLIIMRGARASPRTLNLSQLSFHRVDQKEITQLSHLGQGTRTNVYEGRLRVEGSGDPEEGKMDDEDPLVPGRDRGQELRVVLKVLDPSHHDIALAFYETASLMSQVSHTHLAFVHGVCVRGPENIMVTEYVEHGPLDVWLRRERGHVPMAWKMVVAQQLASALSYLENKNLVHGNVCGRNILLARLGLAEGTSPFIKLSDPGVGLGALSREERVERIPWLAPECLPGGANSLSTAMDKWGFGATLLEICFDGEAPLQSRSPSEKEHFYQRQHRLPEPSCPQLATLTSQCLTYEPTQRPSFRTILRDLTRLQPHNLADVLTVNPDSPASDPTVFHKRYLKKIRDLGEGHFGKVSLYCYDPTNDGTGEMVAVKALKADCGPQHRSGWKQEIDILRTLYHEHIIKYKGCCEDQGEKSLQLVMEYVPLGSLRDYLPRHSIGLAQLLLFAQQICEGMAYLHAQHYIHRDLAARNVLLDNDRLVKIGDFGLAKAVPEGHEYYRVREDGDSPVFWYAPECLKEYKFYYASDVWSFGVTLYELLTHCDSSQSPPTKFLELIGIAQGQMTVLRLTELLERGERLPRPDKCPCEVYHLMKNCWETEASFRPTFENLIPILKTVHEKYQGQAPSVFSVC

Cn1cc(-c2cn3nccc3c(-c3cnn([C@]4(CC#N)C[C@@H](CC#N)C4)c3)n2)cn1
IC50 [1]: > 10000 nM
IC50 [2]: 764 nM
IC50 [3]: 24 nM
IC50 [4]: 159 nM
